According to US8597646B2, “Methods and compositons featuring TGF-beta antagonists for the treatment of marfan syndrome and associated disorders” (The Johns Hopkins University, priority 2005, dated 2013):
“Also recorded” adds a separate entry of the source.

Experiments:
Assay type in all cases: in vivo, mouse
Fbn1C1039G/+ mice [1] = experiment: Postnatal treatment with losartan and propranolol, aorta of Fbn1C1039G/+ mice; conditions: for Aortic root growth rate: during 6 months of treatment
Excerpt: However, before treatment, the aortic diameter in Fbn1C1039G/+ mice was always greater than in untreated wild-type mice (1.59±0.11 mm; P<0.002).
Three independent aortic root measurements were obtained for each mouse every 2 months during the 6 months of treatment. Mice were killed at 8 months of age. […] The aortic root growth rate over this period was less in the wild-type mice than in the placebo-treated Fbn1C1039G/+ mice (P<0.0001, FIG. 21I).

mdx mice = experiment: Muscle regeneration after cardiotoxin injury in 9-month old mdx mice
Protocol: All mouse protocols were approved by the Animal Care and Use Committee of Johns Hopkins University School of Medicine. Creation of the mouse line harboring the Fbn1 mutation C1039G has been previously described (Judge, D. P. et al. (2004) J Clin Invest 114, 172-81). All analyses were performed in male mice after back-crossing (>9 times) this mutation into the C57BL/6J background, allowing valid comparisons between litters. Mice were sacrificed with an inhalation overdose of halothane (Sigma-Aldrich) or by cervical dislocation. For muscle regeneration experiments in Fbn1^C1039G/+ mice, 100 μl cardiotoxin (10 μM Naja nigricollis; Calbiochem, La Jolla, Calif.) (Goetsch, S. C. et al. (2003) Physiol Genomics 14, 261-71; Cohn, R. D. et al. (2002) Cell 110, 639-48) was injected into the tibialis anterior muscle of wild-type and Fbn1^C1039G/+ mice either treated or untreated with TGFβ neutralizing antibody (n=6, each group) at 4 months of age. Subsequently, mice were analyzed at 4, 7, 18 and 28 days after injury. For regeneration experiments in mdx mice we injected 150 μl of cardiotoxin into the tibialis anterior muscle of wild-type and mdx mice, either treated or untreated with TGFβ neutralizing antibody (n=6 each group) at 9 months of age and analyzed skeletal muscle at 4 days and 18 days after injection.
Mice were continued on oral therapy for 6 months and sacrificed. […] Age-matched wild-type and mdx mice (placebo-treated) served as a control group. After 6 months of treatment, forelimb and hindlimb grip strength was assessed using an automated grip strength meter (Columbus Instruments, Columbus, Ohio). […] Total peak force (in Newtons) was determined by an electronic strain gauge as previously described and corrected for body weight (Wagner, K. R., et al. (2002) Ann Neurol 52, 832-6). […] The degree of fatigue was calculated by comparing the first two pulls to the last two pulls with the decrement between pulls 1+2 and pulls 4+5 providing a measure of fatigue. […]

C1039G/+ mice = experiment: Aortic root growth by echocardiography in C1039G/+ mice, 4 months of treatment
Protocol: Markers of TGFβ antagonism have included reduced plasma levels of free TGFβ, reduced intracellular initiation of the TGFβ signaling cascade, and reduced tissue expression of TGFβ-responsive genes. […] Three independent measurements of the aortic root were made from the long axis echo view in systole at each of 3 time points (baseline, 2 and 4 months of treatment; FIG. 8A). All analyses were performed blinded to genotype and treatment arm. […] This represents the first therapeutic strategy for MFS that derives from interrogation of disease pathogenesis and the first possibility for primary prevention of disease manifestations.

Fbn1C1039G/+ mice [2] = experiment: Prenatal treatment with losartan and propranolol, aorta of Fbn1C1039G/+ mice; conditions: prenatal start
Excerpt: Treatment of the mothers continued throughout lactation and was maintained in the pups after weaning. Mice were killed at 10 months of age. […] The average aortic wall thickness for untreated wild-type animals was smaller than that in placebo-treated Fbn1C1039G/+ mice (P<0.0001) but was indistinguishable from that in losartan-treated Fbn1C1039G/+ mice (P=0.24, FIG. 20E).

[3] = 6 months of treatment, monopotassium salt
[4] = 10 months of treatment, monopotassium salt

CCCCc1nc(Cl)c(CO)n1Cc1ccc(-c2ccccc2-c2nnn[nH]2)cc1.[K] [losartan, 2-butyl-4-chloro-1-[p-(o-1H-tetrazol-5-ylphenyl)benzyl]imidazole-5-methanol monopotassium salt]
Aortic wall / elastic fiber architecture (Fbn1C1039G/+ mice [1]; [3]): full normalization relative to wild-type mice | Aortic wall thickness (Fbn1C1039G/+ mice [1]; [3]): full normalization relative to wild-type mice; also recorded: indistinguishable from that seen in wild-type mice | Aortic root growth rate (Fbn1C1039G/+ mice [1]; listed as Losartan, monopotassium salt): normalizes growth rate | Aortic root growth rate (Fbn1C1039G/+ mice [1]; monopotassium salt): indistinguishable from that in the wild-type group | Elastic fiber fragmentation (VVG staining) (Fbn1C1039G/+ mice [1]; from 7 weeks of age, 6 months, drinking water, monopotassium salt): prevented elastic fiber fragmentation; also recorded: Elastic lamellae are intact | TGF-β signaling in aortic media (nuclear pSmad2) (Fbn1C1039G/+ mice [1]; from 7 weeks of age, 6 months, monopotassium salt): blunted TGF-β signaling; also recorded: Nuclear pSmad2 staining is decreased | Absolute diameter of the aortic root at the end of treatment (Fbn1C1039G/+ mice [1]; versus untreated wild-type littermates): similar | Muscle regeneration in mdx mice, in words (mdx mice; 4 days after cardiotoxin, neonatal myosin staining): active regeneration comparable to that seen in wild-type mice | Fibrosis (vimentin) after injury, in words (mdx mice; 18 days after cardiotoxin, monopotassium salt): reduced fibrosis; also recorded: marked reduction in fibrosis | Neonatal myosin positive fibers (mdx mice; four days after injury, untreated mdx 268±12, wild-type 689±19): 513±14 neonatal myosin positive fibers per tibialis anterior muscle | Aortic growth during the 4 months of treatment (C1039G/+ mice; C1039G/+ mice from 7 weeks of age, losartan 50 mg/kg or propranolol 40 mg/kg, aortic root, echo, placebo 0.44±0.09): 0.03±0.07 mm | Aortic growth / protection, in words (C1039G/+ mice; C1039G/+ mice, compared with wild-type or with losartan): indistinguishable from that seen in wild-type mice | Aortic dilatation (Fbn1C1039G/+ mice [2]; 10 months): indistinguishable from wild-type littermates | Aortic wall architecture score (Fbn1C1039G/+ mice [2]; [4]): normalized; also recorded: improvement | Average aortic wall thickness (Fbn1C1039G/+ mice [2]; [4]): indistinguishable; also recorded: full normalization of wall thickness
